Measured values from patent US9983200B2, “Compositions and methods for predicting age of onset of a lysosomal storage disease or a disease associated with a lysosomal defect” (The United States of America, as represented by the …, priority 2013, dated 2018).
Entries after “also recorded” stand apart in the source; their conditions may differ.

Key:
[1] = tested on: fibroblasts (NPC1, NPC2, Wolman, Batten, Fabry, Farber, Niemann-Pick A, Sanfilippo type B, Tay-Sachs diseases); details: 40 μM, fibroblasts of NPC1, NPC2, Wolman; cited from earlier work
[2] = tested on: fibroblasts isolated from an individual with NPC1 disease (NPC-25); assay: LysoTracker Red staining quantified by FACS in NPC1 patient fibroblasts; assay type: cell-based, human; details: for increased LysoTracker staining in NPC1 patient fibroblasts: Example 2, FIGS. 8 and 9; for LysoTracker Red staining intensity (NPC1-associated cholesterol storage defects): NPC-25 cells; for fold change in fluorescence (stained/unstained): NPD patient samples, Example 1, FIGS. 4, 5A, 5B; for normalizing fold-change in fluorescence in cells of NPD subjects: in vitro
Protocol: (D) Bar graphs showing the percentage change of LysoTracker (y-axis) staining intensity in untreated NPC-25 cells (blue bar, set to 100%) as compared to NPC25 cells treated with MβCD, α-T or δ-T (green bars). […] MβCD (Sigma-Aldrich, St. Louis, Mo. cat. #C4555) was resuspended in sterile H2O to a 1 mM stock solution, while α-T and δ-T were dissolved in DMSO to 40 μM, therefore the untreated controls were no drug added for methyl-β-cyclodextrin treatment, and DMSO only added for α-T and δ-T treatment. Statistical analyses performed using Prism (GraphPad).
Cells were cultured in DMEM with fetal bovine serum, L-glutamine, and antibiotics at 5% CO2 in a 37° C. incubator. Cell staining was carried out as follows: Lysotracker-Red Staining Protocol: • Day1—Change media 24 hours before FACS analysis, if treating cells with methyl beta cyclodextrin add the drug as well. • Day2—Note: WORK IN THE DARK, (PROTECT TUBES FROM THE LIGHT while using lysotracker-red) • Dilute LYSOTRACKER-red (1:1000) for a final concentration of 1 μM with culture media. • Incubate cells with lysotracker in the incubator (37° C.) for 30 minutes. • Aspirate media and wash twice with 1×PBS (2 mls each time). • Add 300 μls of Trypsin • Resuspend cells into 5 mls of media and centrifuge at 1000 rpm for 10 minutes in order to obtain pellet. • Resuspend the pellet into 500 uls of media and transfer to FACS vials at 4° C. in the dark. • Perform FACS analysis.
The fluorescence of the cell samples was quantified before and after staining and the fold change in fluorescence was calculated as the ratio of fluorescent intensity after dye/cell autofluorescence. This change was then plotted as a function of time.
Cells were plated onto 60 mm tissue culture dishes and cultured to 70-80% confluency. Media were replaced 24 h prior to analysis. On the day of analysis, cells were incubated at 37° C. for 30 min in fresh media containing 1 μM LysoTracker Red dye (LysoTracker) in 3 mL medium/60 mm dish. Cells were then given two PBS washes, trypsinized, pelleted and resuspended in 500 μL medium. FACS data were collected on 10,000 cells using a FACSCalibur (Becton Dickinson Biosciences, Franklin Lakes, N.J.) equipped with Cell Quest software and analyzed using FlowJo (Tree Star). Fold change in LysoTracker staining was calculated as the ratio of geometric means of stained/unstained samples. Duplicate biological replicates were analyzed on three different days, totaling 6 independent samples per cell line.

[3] = tested on: cultured cells; details: cited from earlier work
[4] = tested on: fibroblasts isolated from an individual with NPC1 disease (NPC-25); assay: LysoTracker Red staining quantified by FACS in NPC1 patient fibroblasts; assay type: cell-based, human; details: NPC4 cells
[5] = tested on: control fibroblasts (CTL1); assay: LysoTracker Red staining quantified by FACS in control (wild type) fibroblasts; assay type: cell-based, human; details: wild type samples, Example 1, FIGS. 4, 5A
Protocol: (A, B) Histograms of FACS analysis of control fibroblasts (A, CTL1) and fibroblasts isolated from an individual with NPC1 disease (B, NPC-25). […] Pink line indicates distribution of unstained cells; blue line indicates LysoTracker-stained cells transfected with an empty control vector (pLenti6.2 Vector/V5 DEST, Invitrogen); green line indicates LysoTracker-stained cells transfected with a human NPC1 cDNA expression vector (Origene, Rockville, Md.; cat. #SC120010). At 72 hours post-transfection, cells were stained with LysoTracker Red dye and analyzed by FACS. […]
The fluorescence of the cell samples was quantified before and after staining and the fold change in fluorescence was calculated as the ratio of fluorescent intensity after dye/cell autofluorescence. […]
Cells were plated onto 60 mm tissue culture dishes and cultured to 70-80% confluency. […] FACS data were collected on 10,000 cells using a FACSCalibur (Becton Dickinson Biosciences, Franklin Lakes, N.J.) equipped with Cell Quest software and analyzed using FlowJo (Tree Star). Fold change in LysoTracker staining was calculated as the ratio of geometric means of stained/unstained samples. Duplicate biological replicates were analyzed on three different days, totaling 6 independent samples per cell line.

Row | Compound | increased LysoTracker staining in NPC1 patient fibroblasts [2] | fold change in fluorescence (stained/unstained) [2] | normalizing fold-change in fluorescence in cells of NPD subjects [2] | removal of cholesterol from cultured cells [3] | other results
1 | Cc1cc(O)cc2c1O[C@](C)(CCC[C@H](C)CCC[C@H](C)CCCC(C)C)CC2 [δ-T, δ-tocopherol] | lessened |  |  |  | lysosomal storage defects (including LysoTracker staining) [1]: reduced lysosomal storage defects; LysoTracker Red staining intensity (NPC1-associated cholesterol storage defects) ([2]; 40 μM δ-T for 72 hours, vs DMSO only): relieved NPC1-associated cholesterol storage defects
2 | Tocopherol |  | effective in reducing the fold change in fluorescence | useful in normalizing fold-change in fluorescence |  | 
3 | Cc1c(C)c2c(c(C)c1O)CC[C@@](C)(CCC[C@H](C)CCC[C@H](C)CCCC(C)C)O2 [α-T, α-tocopherol] |  |  |  |  | LysoTracker Red staining intensity (NPC1-associated cholesterol storage defects) ([2]; 40 μM α-T for 72 hours, vs DMSO only): not
4 | OC[C@H]1O[C@@H]2O[C@H]3[C@H](O)[C@@H](O)[C@@H](O[C@H]4[C@H](O)[C@@H](O)[C@@H](O[C@H]5[C@H](O)[C@@H](O)[C@@H](O[C@H]6[C@H](O)[C@@H](O)[C@@H](O[C@H]7[C@H](O)[C@@H](O)[C@@H](O[C@H]8[C@H](O)[C@@H](O)[C@@H](O[C@H]1[C@H](O)[C@H]2O)O[C@@H]8CO)O[C@@H]7CO)O[C@@H]6CO)O[C@@H]5CO)O[C@@H]4CO)O[C@@H]3CO [β-cyclodextrin] |  |  |  | remove cholesterol | 
5 | cyclodextrin |  |  | useful in normalizing fold-change in fluorescence; also recorded: normalize the fold-change in fluorescence |  | fluorescence values by FACS (FIG. 1A) [4]: corrected
6 | Methyl-β-cyclodextrin [MβCD] | lessened | reduced |  | remove cholesterol; also recorded: more efficient than β-cyclodextrin | LysoTracker Red staining intensity (NPC1-associated cholesterol storage defects) ([2]; 300 μM MβCD for 24 hours, vs untreated cells (100%)): relieved NPC1-associated cholesterol storage defects; fold change in fluorescence (stained/unstained) [5]: reduced
